No end group written: not given here.
Tested on: βIII-tubulin+ retinal neurons
Excerpt: For all in vitro experiments, adult 6–8-week-old female Sprague–Dawley rats weighing 170–220 g were used. Culture experiments included retinal cells treated with: (1), Neurobasal-A (NBA) alone (Control); and equimolar concentrations of (2), 2.16; (3) 5.4; (4), 10.8 and (5), 21.6 pM PEDF-34/-44; and (6), ciliary neurotrophic factor (CNTF: Peprotech, London, UK), as a positive control at an optimal neuroprotective/axogenic concentration of 440.5 pM, established by us previously ([Ahmed et al., 2009; Douglas et al., 2009]). […] All experiments were performed in triplicate and repeated on three independent occasions.
Mixed adult rat retinal cultures containing enriched populations of retinal neurons, including RGCs, were prepared from 6–8-week-old adult female Sprague–Dawley rats, as described previously ([Ahmed et al., 2006b, 2009, 2010; Douglas et al., 2009; Vigneswara et al., 2013]). Briefly, retinal cells were dissociated using a Papain dissociation kit according to the manufacturer's instructions (Worthington Biochemicals, Lakewood, NJ, USA). […]
The mean number of βIII-tubulin^+ neurons surviving, with neurites and the mean neurite length were quantified as described by us previously ([Vigneswara et al., 2013, 2014]). Briefly, chamber slides were anonymised by a second investigator and βIII-tubulin^+ neuronal soma and neurites quantified in 9 quadrants/well using Axiovision software (Version 4.8; Zeiss) and ImagePro (Version 6.3; Media Cybernetics, Bethesda, MD, USA). Of the 125,000 cells/well plated, the total numbers of neurons in each experiment were determined by βIII-tubulin^+ immunocytochemistry after allowing 30 min for cells to adhere to glass culture slides. […] Neurite outgrowth from at least 180 neurons/condition from the 9 wells was measured, except in control (NBA) cultures, in which a total of 108 neurons were measured.

DPFFKVPVNKLAAAVSNFGYDLYRVRSSTSPTTN [PEDF-34]
fold increase in βIII-tubulin+ neuron numbers compared to untreated cultures (5.4 pM, 4 days in culture): 4.5 fold
more neuroprotective than PEDF-44 in vitro (PEDF-34 versus equimolar PEDF-44, retinal cultures): 43%
